Structures can show the parent of a compound that is named as a salt. Where two headings read alike, the source gives them in different places.
Columns and labels:
PARP-1 enzyme [1] = biological target: PARP-1 enzyme (Homo sapiens (Human), UniProt P09874); assay: Poly(ADP-ribose)polymerase [PARP-1] enzyme inhibitory activity (Trevigen PARP Assay kit); format: biochemical; details: read-out: PARP-1 Inhibitory activity IC50
In short: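 On histone-coated plates, PARP-1 (0.12 unit/well) reacted with compound for 30 min at 25 °C in a 2× cocktail of 1.95 mM NAD+, 50 μM biotinylated NAD+ and activated DNA (Tris pH 8.0, 25 mM MgCl2). Biotin-ribosylated histone was detected with streptavidin-HRP and TACS-Sapphire substrate, stopped with HCl and read at 450 nm.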

PARP-1 enzyme [2] = biological target: PARP-1 enzyme (Cricetulus griseus (Chinese hamster) (Cricetulus barabensis griseus), UniProt Q9R152); assay: Intracellular PARP inhibitory activity (NAD(P)H released by MMS-treated CHO-K1 cells); format: cell-based
Experimental: In order to verify the ability of the compounds of the present invention to inhibit the PARP-1 enzyme activity, the amount of NAD(P)H accumulated on cell culture medium was measured.
The Chinese hamster ovary cells (CHO-K1) were cultured in RPMI1640 culture medium containing 10% fetal bovine serum (FBS). The cultured CHO-K1 cells were seeded into 96 well plate by 2.9×10^3 cells/well, and cultured for 16 hours under culture condition of 37° C., 5% CO2. After the culture, the cells were treated with the compounds of the Examples at varying concentrations, and cultured at 37° C. for 2 hours. […] The amount of […] released to the culture medium 3, 4, 5 hours after the treatment with MMS was quantified at 450 nm using Wallac EnVision™ (PerkinElmer Oy, Turku, Finland). The transference numbers of the compounds at varying concentrations according to the present invention are the average values obtained from four wells, and the results were calculated using regression analysis.
The Chinese hamster ovary cells (CHO-K1) were treated with the compounds at varying concentration according to the present invention, and the amount of NAD(P)H released into the culture medium 4 hours after the MMS treatment was quantified.

A549 cell line = assay: Cell growth inhibition of cancer cell lines (SRB assay), A549; format: cell-based; details: for SN-38 PF50 / Temozolomide PF50: 2 μM compound; for SN-38 PF50: GI50 SN-38 alone / GI50 with compound; for Temozolomide PF50: GI50 temozolomide alone / GI50 with compound; for GI50: Homo sapiens, 72 hours
Experimental: (§1) The tests on cell growth inhibitory activity were performed with respect to A549 (US, ATCC), SK-OV-3 (Korea Research Institute of Chemical Technology; KRICT), HT-29 (US, ATCC), MCF-7 cell (US, ATCC), using Sulforhodamin-B <SRB> Assay (1989, US National Cancer Institute (NCI)) which was developed to measure the in vitro anti-cancer activity of the drug. […] The samples of the compounds of the Examples according to the present invention were used for the tests, and before the tests, the samples were dissolved in dimethylsulfoxide and diluted with the culture medium (RPMI 1640) to be used. The final concentration of the sample was varied in the range of 0.3˜100 μM. After the culture medium was removed from the 96 well plates, the diluted sample solution was added by 100 μl, and cultured in 37° C., 5% CO2 culture medium for 72 hours. The time zero (Tz) plates were collected at the time point of adding the sample. Upon completing the culture, the medium was removed from each well along with Tz plate, then cold 10% trichloroacetic acid (TCA) was added by 100 μl per well. The wells were left at 4° C. for 1 hour, so that the cells were fixed into the bottom of the plates. After the cells were fixed, the plates were rinsed with water five to six times to remove the remaining trichloroacetic acid solution, and moisture was completely dried at room temperature. The cells were dyed for 30 minutes by adding the dye solution in which 0.4% sulforhodamine-B was dissolved in 1% acetic acid solution, by 100 μl per dried wells. The above was rinsed again with 1% acetic acid solution five to six times to ensure that sulforhodamine-B which had not attached to the cells was removed. The plates were again dried at room temperature. 100 μl of 10 mM tris-buffer was then added to dissolve the dye, and the optical density (OD) at 520 nm was measured with the microplate reader. GI50 of the sample regarding cancer cell was calculated as explained below. Time zero (Tz), control value (C) and test value (T) were obtained, in which Tz corresponds to OD value of time at which the sample is applied and culture is started, C corresponds to OD value of the well which is cultured without treatment with the sample, and T corresponds to OD value of the well which is treated with the sample and then cultured. The degree of cell growth inhibition of the sample was measured using: If […] [Mathematical Formula 1]
(§2) Further, the ability of Examples 2, 42, 49, 52, 72, 74, 101 to increase growth inhibition effect of temozolomide and SN-38 at 2 μM was determined.

SK-OV-3 Cell line = assay: Cell growth inhibition of cancer cell lines (SRB assay), SK-OV-3; format: cell-based; details: for SN-38 PF50 / Temozolomide PF50: 2 μM compound; for GI50: Homo sapiens, 72 hours
Experimental: as §1, §2

HT-29 Cell line = assay: Cell growth inhibition of cancer cell lines (SRB assay), HT-29; format: cell-based; details: for SN-38 PF50 / Temozolomide PF50: 2 μM compound; for GI50: Homo sapiens, 72 hours
Experimental: as §1, §2

MCF-7 Cell line = assay: Cell growth inhibition of cancer cell lines (SRB assay), MCF-7; format: cell-based; details: for SN-38 PF50 / Temozolomide PF50: 2 μM compound; for GI50: Homo sapiens, MCF7, 72 hours
Experimental: as §1, §2

Sequence of PARP-1 enzyme (Cricetulus griseus (Chinese hamster) (Cricetulus barabensis griseus), UniProt Q9R152) (Q9R152 whole entry): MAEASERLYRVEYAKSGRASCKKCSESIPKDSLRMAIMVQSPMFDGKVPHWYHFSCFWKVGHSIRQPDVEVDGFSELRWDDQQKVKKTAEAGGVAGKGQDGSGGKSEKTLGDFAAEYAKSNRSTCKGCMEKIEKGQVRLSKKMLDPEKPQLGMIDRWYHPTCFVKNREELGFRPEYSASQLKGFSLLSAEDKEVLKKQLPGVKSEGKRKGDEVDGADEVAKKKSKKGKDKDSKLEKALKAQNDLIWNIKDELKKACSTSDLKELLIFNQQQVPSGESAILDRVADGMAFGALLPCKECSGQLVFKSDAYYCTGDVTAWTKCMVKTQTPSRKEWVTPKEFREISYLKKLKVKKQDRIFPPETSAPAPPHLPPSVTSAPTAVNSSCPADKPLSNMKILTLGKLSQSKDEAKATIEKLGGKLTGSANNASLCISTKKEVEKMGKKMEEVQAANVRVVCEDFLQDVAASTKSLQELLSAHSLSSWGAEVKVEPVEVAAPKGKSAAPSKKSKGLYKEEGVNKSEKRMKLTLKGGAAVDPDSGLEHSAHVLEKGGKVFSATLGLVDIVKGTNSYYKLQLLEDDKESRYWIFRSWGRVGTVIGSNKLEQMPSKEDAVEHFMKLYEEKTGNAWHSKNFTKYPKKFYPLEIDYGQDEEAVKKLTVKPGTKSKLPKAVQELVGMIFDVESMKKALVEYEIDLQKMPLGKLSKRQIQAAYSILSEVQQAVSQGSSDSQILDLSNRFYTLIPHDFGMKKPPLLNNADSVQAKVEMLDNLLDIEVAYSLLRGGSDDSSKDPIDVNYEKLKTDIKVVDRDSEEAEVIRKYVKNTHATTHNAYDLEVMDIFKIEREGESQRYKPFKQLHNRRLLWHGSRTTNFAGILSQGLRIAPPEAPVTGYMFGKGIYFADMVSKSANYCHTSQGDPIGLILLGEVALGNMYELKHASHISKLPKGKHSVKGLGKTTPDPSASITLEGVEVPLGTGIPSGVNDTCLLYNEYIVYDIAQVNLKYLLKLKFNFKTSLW
Sequence of PARP-1 enzyme (Homo sapiens (Human), UniProt P09874) (P09874 whole entry): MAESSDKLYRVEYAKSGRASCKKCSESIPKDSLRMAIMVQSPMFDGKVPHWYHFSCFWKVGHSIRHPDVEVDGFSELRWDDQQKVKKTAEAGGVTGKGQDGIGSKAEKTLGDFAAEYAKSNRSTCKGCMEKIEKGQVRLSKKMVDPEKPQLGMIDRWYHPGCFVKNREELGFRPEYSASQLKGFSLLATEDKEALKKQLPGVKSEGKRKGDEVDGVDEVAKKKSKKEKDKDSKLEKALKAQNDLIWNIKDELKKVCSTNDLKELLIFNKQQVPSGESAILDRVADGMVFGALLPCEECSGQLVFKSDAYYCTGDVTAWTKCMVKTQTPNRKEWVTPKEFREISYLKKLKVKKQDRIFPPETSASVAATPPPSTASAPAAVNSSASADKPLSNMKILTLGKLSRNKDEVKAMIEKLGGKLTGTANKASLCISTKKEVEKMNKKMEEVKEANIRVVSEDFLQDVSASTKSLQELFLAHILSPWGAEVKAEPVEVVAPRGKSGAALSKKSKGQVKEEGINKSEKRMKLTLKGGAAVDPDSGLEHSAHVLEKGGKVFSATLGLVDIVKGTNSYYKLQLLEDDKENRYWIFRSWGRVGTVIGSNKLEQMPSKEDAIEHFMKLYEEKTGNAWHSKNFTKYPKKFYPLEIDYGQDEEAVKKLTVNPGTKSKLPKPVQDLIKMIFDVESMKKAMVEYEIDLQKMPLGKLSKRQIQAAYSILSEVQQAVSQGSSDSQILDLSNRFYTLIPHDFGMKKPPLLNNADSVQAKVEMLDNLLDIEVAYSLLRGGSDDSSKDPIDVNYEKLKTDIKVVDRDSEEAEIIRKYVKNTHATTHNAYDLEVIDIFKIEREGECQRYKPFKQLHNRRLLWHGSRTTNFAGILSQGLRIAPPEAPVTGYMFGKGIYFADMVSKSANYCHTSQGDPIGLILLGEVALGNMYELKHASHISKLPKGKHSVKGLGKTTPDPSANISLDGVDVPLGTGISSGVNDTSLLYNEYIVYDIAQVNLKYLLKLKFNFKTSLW

Compound	IC50 (PARP-1 enzyme [1]) [µM]	IC50 (PARP-1 enzyme [2]) [µM]	SN-38 PF50 (A549 cell line)	Temozolomide PF50 (A549 cell line)	GI50 (A549 cell line) [µM]	SN-38 PF50 (SK-OV-3 Cell line)	Temozolomide PF50 (SK-OV-3 Cell line)	GI50 (SK-OV-3 Cell line) [µM]	SN-38 PF50 (HT-29 Cell line)	Temozolomide PF50 (HT-29 Cell line)	GI50 (HT-29 Cell line) [µM]	SN-38 PF50 (MCF-7 Cell line)	Temozolomide PF50 (MCF-7 Cell line)	GI50 (MCF-7 Cell line) [µM]	IC50 (PARP-1 enzyme [1]; PARP-1 enzyme, histone ribosylation, 450 nm) [µM]
COc1cc(CN(C)C)cc2[nH]c(=O)c3c(c12)NCCC3 [Example 72, 8-[(Dimethylamino)methyl]-10-methoxy-1,2,3,4-tetrahydrobenzo[h][1,6]naphthyridine-5(6H)-one dihydrochloride]	0.08	0.09	3.8	3.4	> 100	1.8	>10.2	> 100	2.2	>5.2	> 100	2.6	1.7	54	
CCOc1cc(CN2CCOCC2)cc2[nH]c(=O)c3c(c12)NCCC3 [Example 101, 10-Ethoxy-8-(morpholinomethyl)-1,2,3,4-tetrahydrobenzo[h][1,6]naphthyridine-5(6H)-one dihydrochloride]		1.94	2.6	3.2	55	2.8	>3.9	19	4.0	>1.9	20	3.0	5.9	11	0.56

— patent US8815891B2, “Tricyclic derivative or pharmaceutically acceptable salts thereof, preparation method thereof, and pharmaceutical composition containing the same” (Je Il Pharmaceutical Co., Ltd., priority 2008, dated 2014)
